Results: PMC5820170 (Molecular cancer therapeutics, 2015)

Biological target: Mammalian Ste20-like kinase 4 (MST4) (Homo sapiens, UniProt Q9P289)
Type: biochemical

Sequence of Mammalian Ste20-like kinase 4 (MST4) (Q9P289 whole entry): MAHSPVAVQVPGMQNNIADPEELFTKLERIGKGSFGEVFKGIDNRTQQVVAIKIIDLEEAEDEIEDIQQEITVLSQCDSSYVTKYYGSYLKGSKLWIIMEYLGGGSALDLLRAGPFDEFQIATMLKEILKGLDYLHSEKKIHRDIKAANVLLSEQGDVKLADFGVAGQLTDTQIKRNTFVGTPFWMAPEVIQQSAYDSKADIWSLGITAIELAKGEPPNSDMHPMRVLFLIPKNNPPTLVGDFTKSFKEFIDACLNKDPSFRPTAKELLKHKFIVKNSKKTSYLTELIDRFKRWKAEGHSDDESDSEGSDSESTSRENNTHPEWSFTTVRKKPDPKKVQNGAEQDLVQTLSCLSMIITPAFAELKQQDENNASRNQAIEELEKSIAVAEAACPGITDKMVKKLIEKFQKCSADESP

Question: CCS(=O)(=O)Nc1ccc2c(c1)/C(=C(/Nc1ccc(CN3CCCCC3)cc1)c1ccccc1)C(=O)N2 [Hesperadin] was tested. Which IC50 did it give?
Answer: 6.18 ± 2.2 nM
